For 23 compounds, EC50 and CC50 results are on record in ChEMBL document CHEMBL1811861 (Bioorg Med Chem, 2011).

Usually pEC50 stands for −log10 of the EC50, conventionally taken in molar units.

pEC50: −log10 of the molar value.

For data set [1], the system named is Human immunodeficiency virus 1. As to the kind of experiment: microbe, parasite or virus in culture. To be noted: Human immunodeficiency virus 1, LAI, MT2.
The subject of data set [2] is Human alphaherpesvirus 3. As to the kind of experiment: microbe, parasite or virus in culture. The settings on record: Human alphaherpesvirus 3, strain Oka vaccine, HEL.
Data set [3] deals with Human alphaherpesvirus 3. As to the kind of experiment: microbe, parasite or virus in culture. To be noted: Human alphaherpesvirus 3, 07/1, HEL.
For data set [4] the following is noted: cat, crfk, 72 h.
In a further data set the test system is Felid alphaherpesvirus 1. As to the kind of experiment: microbe, parasite or virus in culture. The settings on record: Felid alphaherpesvirus 1, CRFK.
Another data set deals with Feline coronavirus. As to the kind of experiment: microbe, parasite or virus in culture. The settings on record: Alphacoronavirus 1, CRFK.
Data set [5] relates to Human betaherpesvirus 5. As to the kind of experiment: microbe, parasite or virus in culture. To be noted: Human betaherpesvirus 5, AD169, HEL.
Data set [6] relates to Respiratory syncytial virus. As to the kind of experiment: microbe, parasite or virus in culture. The settings on record: human respiratory syncytial virus, HeLa.
A further data set concerns Sindbis virus. As to the kind of experiment: microbe, parasite or virus in culture. To be noted: Vero.
The test system of data set [7] is Human betaherpesvirus 5. As to the kind of experiment: microbe, parasite or virus in culture. The settings on record: Human betaherpesvirus 5, Davis, HEL.
The subject of another data set is Punta Toro virus. As to the kind of experiment: microbe, parasite or virus in culture. The settings on record: Vero.
The next data set relates to Human respirovirus 3. As to the kind of experiment: microbe, parasite or virus in culture. To be noted: Human respirovirus 3, Vero.
Data set [8] deals with Mammalian orthoreovirus 1. As to the kind of experiment: microbe, parasite or virus in culture. The settings on record: Mammalian orthoreovirus 1, Vero.
Data set [9] relates to Coxsackievirus B4. As to the kind of experiment: microbe, parasite or virus in culture. The settings on record: Enterovirus B, Vero.
For data set [10], the system named is Influenza A virus. As to the kind of experiment: microbe, parasite or virus in culture. The settings on record: H3N2, MDCK.
Data set [11] concerns Human alphaherpesvirus 1. As to the kind of experiment: microbe, parasite or virus in culture. To be noted: Human alphaherpesvirus 1, KOS, HEL.
The test system of another data set is Influenza B virus. As to the kind of experiment: microbe, parasite or virus in culture. To be noted: MDCK.
In data set [12] the test system is Influenza A virus. As to the kind of experiment: microbe, parasite or virus in culture. The settings on record: H1N1, MDCK.
Data set [13] concerns Human immunodeficiency virus 1. As to the kind of experiment: microbe, parasite or virus in culture. The settings on record: Human immunodeficiency virus 1, 3B, CCRF-CEM, 96 h.
Data set [14] concerns Human immunodeficiency virus 2. As to the kind of experiment: microbe, parasite or virus in culture. The settings on record: Human immunodeficiency virus 2, ISOLATE ROD, CCRF-CEM, 96 h.
A further data set relates to Human alphaherpesvirus 2. As to the kind of experiment: microbe, parasite or virus in culture. To be noted: Human alphaherpesvirus 2, strain G, HEL.
The next data set deals with Vaccinia virus. As to the kind of experiment: microbe, parasite or virus in culture. The settings on record: Orthopoxvirus vaccinia, HEL.
Data set [15] concerns Vesicular stomatitis virus. As to the kind of experiment: microbe, parasite or virus in culture. To be noted: HeLa.
Data set [16] deals with Human alphaherpesvirus 1. As to the kind of experiment: microbe, parasite or virus in culture. The settings on record: Human alphaherpesvirus 1, KOS, HEL. This is another data set of the same source.
In another data set the test system is HEL. The settings on record: human, 72 h.
The test system of data set [17] is Vesicular stomatitis virus. As to the kind of experiment: microbe, parasite or virus in culture. To be noted: HEL.
The subject of another data set is HeLa. To be noted: human, 72 h.
The subject of another data set is CCRF-CEM. To be noted: human, 72 h.
For data set [18], the system named is Coxsackievirus B4. As to the kind of experiment: microbe, parasite or virus in culture. The settings on record: Enterovirus B, HeLa.
Data set [19] concerns Human betaherpesvirus 5. As to the kind of experiment: microbe, parasite or virus in culture. The settings on record: Human betaherpesvirus 5, AD169, HFF.
A short description of the next data set: in vitro. To be noted: human, HeLa cells.

Turning to `CCCCCCCCCCCCCCCCOCCCOP(=O)(O)COCCn1cnc2c(N)ncnc21`, the pEC50 in [1] was 10.82.
Take `Nc1ncnc2c1ncn2CCOCP(=O)(O)OCCCCCCCCCCO`: the pEC50 with Human alphaherpesvirus 3 [2] is 3.94; in the data set on Human alphaherpesvirus 3 [3] it was 4.19.
As for `Nc1ncnc2c1ncn2CCOCP(=O)(O)OCCCCCCCCC(O)CO` (centres undefined), the CC50 in data set [4] turned out to be 9.4 µM. For the same compound, the pEC50 with Felid alphaherpesvirus 1 and with Feline coronavirus was below 5.05 throughout.
For the compound `Nc1ncnc2c1ncn2CCOCP(=O)(OCCCCCCCCCCO)OCCCCCCCCCCO`, the pEC50 with Human betaherpesvirus 5 [5] is below 4.47; in data set [6], 4.00; in the data set with Sindbis virus it was below 4.47; in the data set on Human betaherpesvirus 5 [7], below 4.47; with Punta Toro virus it was below 4.47; with Human respirovirus 3, below 4.47. Also, the pEC50 (in the data set on Human alphaherpesvirus 3 [2]; in the data set on Human alphaherpesvirus 3 [3]; in [8]; in the data set on Coxsackievirus B4 [9]) was below 4.47 throughout.
As for `Nc1ncnc2c1ncn2CCOCP(=O)(OCCCCCCCCC(O)CO)OCCCCCCCCC(O)CO` (centres undefined), the pEC50 is 4.00 in the data set on Human alphaherpesvirus 3 [2], 4.22 in the data set on Human alphaherpesvirus 3 [3] and below 3.49 in the data set on Influenza A virus [10].
On to `Nc1ncnc2c1ncn2CCOCP(=O)(O)OCCOCCCCCCCCCCO`, for which the pEC50 in the data set with Human alphaherpesvirus 1 [11] is 3.91; with Influenza B virus it was below 4.38; in the data set on Influenza A virus [12], below 4.38; in [13], 3.97; in data set [14] it was 4.02; with Human alphaherpesvirus 3 [2] it was 4.59. Further, the pEC50 with Human alphaherpesvirus 3 [3] is 4.74; in the data set on Human alphaherpesvirus 2, 3.91; with Influenza A virus [10], below 4.38.
Regarding `Nc1ncnc2c1ncn2CCOCP(=O)(O)OCCOCCCCCCCCC(O)CO` (centres undefined), the values for the pEC50 with Human alphaherpesvirus 3 [2] and in the data set on Human alphaherpesvirus 3 [3] were 4.21 and at most 4.14, respectively.
As for `Nc1ncnc2c1ncn2CCOCP(=O)(OCCOCCCCCCCCCCO)OCCOCCCCCCCCCCO`, the pEC50 in the data set on Vaccinia virus was below 4.53; in the data set on Human alphaherpesvirus 1 [11], below 4.53; in data set [15], below 4.53; in the data set with Human alphaherpesvirus 1 [16] it was below 4.53; in the data set with Influenza B virus it was below 5.23; in the data set on Influenza A virus [12] it was below 5.23. In addition, the pEC50 (in data set [13]; with Human betaherpesvirus 5 [5]; in data set [6]; in data set [17]; in the data set on Sindbis virus; in data set [14]) was below 4.53 throughout. Moreover, the pEC50 with Felid alphaherpesvirus 1, with Human betaherpesvirus 5 [7], in the data set with Feline coronavirus, in the data set on Punta Toro virus, with Human respirovirus 3 and with Human alphaherpesvirus 3 [2] was below 4.53 throughout. Further, the negative-log EC50 (pEC50) with Human alphaherpesvirus 3 [3] was below 4.53; in the data set on Human alphaherpesvirus 2, below 4.53; in the data set on Influenza A virus [10] it was below 5.23; in the data set on Coxsackievirus B4 [18], below 4.53; in data set [8], below 4.53; in the data set on Coxsackievirus B4 [9], below 4.53. The CC50 in the data set with HEL is 62.5 µM; in [4], above 148 µM; in the data set with HeLa it was 148 µM; in the data set with CCRF-CEM it was 13.5 µM.
Compound `Nc1ncnc2c1ncn2CCOCP(=O)(OCCOCCCCCCCCC(O)CO)OCCOCCCCCCCCC(O)CO` (centres undefined) showed a negative logarithm of the EC50 (pEC50) with Human betaherpesvirus 5 [5] below 4.55.
In the data set with Human alphaherpesvirus 3 [3], `Nc1ncnc2c1ncn2CCOCP(=O)(O)OCCOCCOCCOCCOCCOCCO` gave a pEC50 of 4.39.
`CCOCCOCCOCCOCCOCCOCCOP(=O)(O)COCCn1cnc2c(N)ncnc21` had a CC50 in the data set on HEL of 146 µM. Besides, the pEC50 in the data set on Human alphaherpesvirus 3 [2] was 4.13; in the data set with Human alphaherpesvirus 3 [3], 4.16.
Take `Cc1oc(=O)oc1COP(=O)(O)COCCn1cnc2c(N)ncnc21`: the pEC50 with Human alphaherpesvirus 1 [11] was 4.28; in the data set with Human alphaherpesvirus 1 [16], 4.28; in [13], 4.97; in data set [14], 5.03; with Human alphaherpesvirus 3 [2] it was 5.72; in the data set on Human alphaherpesvirus 3 [3] it was 5.12. In the data set with Human alphaherpesvirus 2, this compound gave a pEC50 of 4.01. Moreover, the CC50 in the data set on HEL is 117 µM; in the data set with CCRF-CEM it was 88 µM.
Take `Nc1ccn(C[C@@H](CO)OCP(=O)(O)OCCOCCOCCOCCOCCOCCO)c(=O)n1`: the pEC50 is 3.97 in the data set on Vaccinia virus; 4.89 with Human alphaherpesvirus 1 [11]; 4.78 in the data set on Human alphaherpesvirus 1 [16]; 6.10 with Human betaherpesvirus 5 [5]; 4.84 in the data set on Felid alphaherpesvirus 1; 6.15 in the data set with Human betaherpesvirus 5 [7]. The pEC50 in the data set with Human alphaherpesvirus 3 [2] is 5.72; with Human alphaherpesvirus 3 [3] it was 6.22; in the data set on Human alphaherpesvirus 2 it was 5.13.
Take `CCOCCOCCOCCOCCOCCOCCOP(=O)(O)CO[C@H](CO)Cn1ccc(N)nc1=O`: the pEC50 was 4.80 in the data set on Vaccinia virus; 5.46 in the data set on Human alphaherpesvirus 1 [11]; 6.02 in the data set on Human betaherpesvirus 5 [5]; 5.55 in the data set on Felid alphaherpesvirus 1; 5.85 in the data set on Human alphaherpesvirus 2.
In turn, `CCCCCCCCCCCCCCOCCCOP(=O)(O)CO[C@H](CO)Cn1ccc(N)nc1=O` gave a pEC50 in the data set on Human betaherpesvirus 5 [19] of 8.70.
In the case of `Nc1nc2c(ncn2COCCO)c(=O)[nH]1` [ACYCLOVIR], the CC50 in the data set on HEL was at least 1420 µM. Further, the pEC50 in the data set with Human alphaherpesvirus 3 [3] is 4.16.
With `Nc1ncnc2c1ncn2CCOCP(=O)(O)O` [ADEFOVIR], the pEC50 in the data set on Human alphaherpesvirus 1 [11] was 4.38; in the data set on Human alphaherpesvirus 1 [16], 4.37; in [13], 4.98; with Human betaherpesvirus 5 [5], 3.93; in data set [14] it was 5.07; in the data set on Human betaherpesvirus 5 [7], 3.94. Moreover, the pEC50 in the data set with Human alphaherpesvirus 3 [2] was 5.17; in the data set with Human alphaherpesvirus 3 [3], 5.30; in the data set with Human alphaherpesvirus 2, 4.60; in data set [1], 5.96. Also, the figures for the CC50 in the data set with HeLa and in the data set on CCRF-CEM were above 250 µM and 164 µM, respectively.
Consider `CCCCCCCCCCCCCCCCOCCCOP(=O)(O)CO[C@H](CO)Cn1ccc(N)nc1=O` [BRINCIDOFOVIR], for which the pEC50 in the data set on Human betaherpesvirus 5 [19] is 9.05.
As to `O=c1[nH]c(=O)n([C@H]2C[C@H](O)[C@@H](CO)O2)cc1/C=C/Br` [BRIVUDINE], the negative logarithm of the EC50 (pEC50) in the data set on Human alphaherpesvirus 1 [11] is 3.56; in the data set with Human alphaherpesvirus 3 [2] it was 7.89; in the data set on Human alphaherpesvirus 3 [3], at most 3.98; with Human alphaherpesvirus 2, 4.34. Moreover, in the data set on HEL, the CC50 came to 470 µM.
Regarding `Nc1ccn(C[C@@H](CO)OCP(=O)(O)O)c(=O)n1` [CIDOFOVIR], the pEC50 in the data set with Vaccinia virus is 5.15; with Human alphaherpesvirus 1 [16], 5.80; with Human betaherpesvirus 5 [5] it was 6.04; in the data set on Human betaherpesvirus 5 [7], 6.03; in the data set with Human betaherpesvirus 5 [19] it was 5.92; in the data set with Human alphaherpesvirus 3 [2], 6.54. The results for the pEC50 in the data set on Human alphaherpesvirus 3 [3] and in the data set with Human alphaherpesvirus 2 were 7.00 and 5.84, respectively. The compound further came in with a CC50 with HEL of 234 µM.
Turning to `Nc1nc(O)c2ncn(COC(CO)CO)c2n1` [GANCICLOVIR], the pEC50 in the data set on Vaccinia virus is below 3.60; in the data set on Felid alphaherpesvirus 1 it was 5.09; in the data set with Human alphaherpesvirus 2 it was 7.57. Further, the CC50 with HEL is 435 µM; in data set [4], above 394 µM.
Take `CCOC(=O)C1=C[C@@H](OC(CC)CC)[C@H](NC(C)=O)[C@@H](N)C1` [OSELTAMIVIR]: the pEC50 was 4.63 in the data set on Influenza B virus and 4.92 in the data set with Influenza A virus [12].
For the compound `NC(=O)c1ncn([C@@H]2O[C@H](CO)[C@@H](O)[C@H]2O)n1` [RIBAVIRIN], the pEC50 in the data set on Influenza A virus [12] is 5.01; in data set [6], 5.52; in the data set with Sindbis virus it was below 3.60; in [8] it was at most 3.76; in the data set on Coxsackievirus B4 [9], below 3.60. The CC50 at 72 h in the data set “in vitro” is above 250 µM.
